Results from patent publication US5252718A, “Fibroblast growth factor antagonists” (The Salk Institute for Biological Studies, priority 1992, dated 1993).
Ends that are not written are not given here. Peptide text beside a SMILES is read from it.

Tested on: BAAE cells
Type: cell-based, bovine
Details: for reducing cell population, bFGF-stimulated endothelial cell growth / reducing cell population, basal endothelial cell growth: manner of Example II, concentration not given; for antagonist activity to both basal and bFGF-stimulated endothelial cell growth: result in words
Method: To determine the effectiveness of the bFGF fragment peptide to inhibit the growth of endothelial cells, the peptide is tested under conditions to measure its ability to modulate both basal cell growth and bFGF-simulated cell proliferation. A bioassay was employed of the type set forth in detail in Gospodarowicz et al., J. Cell Biol., 122, 323-333 (1985), using BAAE cells.
For each test, an initial cell density of between about 0.3-0.5×10^4 cells per well was established in 24-miniwell plates. After 6-8 hours, the cells in each well were treated with a challenge dose of bFGF in the absence, or presence to a varying concentration, of a synthetic FGF antagonist. The precise treatment was repeated 48 hours later. On the fifth day, the cells were digested with trypsin, and the total number of cells in each well was determined using a Coulter particle counter.

Row | Compound | ID50 | reducing cell population, bFGF-stimulated endothelial cell growth | reducing cell population, basal endothelial cell growth | antagonist activity to both basal and bFGF-stimulated endothelial cell growth
1 | N=C(N)NCCC[C@H](NC(=O)CNC(=O)[C@H](CC(=O)O)NC(=O)[C@@H]1CCCN1)C(N)=O [bFGF(36-39)-NH2, H-Pro-Asp-Gly-Arg-NH2] (H-PDGR-NH2) | 30 to 50 µM | about 54% | about 37% | full antagonist activity
2 | YCKNGGFFLRIHPDGRVDGVREKADPHIKLQLQAEERGVV-NH2 [[Ala^47]-bFGF(24-63)-NH2] | – | – | – | full antagonist activity
3 | H-FFLRIHPDGRVDGVREKSDPY-NH2 [[Tyr^50]-bFGF(30-50)-NHz, H-Phe-Phe-Leu-Arg-Ile-His-Pro-Asp-Gly-Arg-Val-Asp-Gly-Val-Arg-Glu-Lys-Ser- Asp-Pro-Tyr-NH2] | – | about 6% | about 19% | full antagonist activity
4 | H-HPDGRVDGVREKSDPH-NH2 [bFGF(35-50)-NH2, H-His-Pro-Asp-Gly-Arg-Val-Asp-Gly-Val-Arg-Glu-Lys-Ser-Asp-Pro-His-NH2] | – | – | – | full antagonist activity
5 | YCKNGGFFLRIHPDGRVDGVREKSDPHIKLQLQAEERGVV-NH2 [bFGF(24-63)-NH2, H-Tyr-Cys-Lys-Asn-Gly-Gly-Phe-Phe-Leu-Arg-Ile-His-Pro-Asp-Gly-Arg-Val-Asp- Gly-Val-Arg-Glu-LysSer-Asp-Pro-His-Ile-Lys-Leu-Gln-T-Gln-Ala -Glu-Glu-Arg-Gly-Val-Val-NH2] | – | – | – | full antagonist activity
6 | H-HPDGRVDAVREKTDPH-NH2 [[Ala^42, Thr^47]-bFGF(35-50)-NH2, H-His-Pro-Asp-Gly-Arg-Val-Asp-Ala-Val-Arg-Glu-Lys-Thr-Asp-Pro-His-NH2] | – | – | – | full antagonist activity
7 | H-PDGRVDAVREKSDPHIKLQLQAEERGVVSIKGV-NH2 [[Ala^42]-bFGF(36-68)-NH2, H-Pro-Asp-Gly-Arg-Val-Asp-Ala-Val-Arg-Glu-Lys-Ser-Asp-Pro-His-Ile-Lys-Leu- Gln-Leu-Gln-Ala-Glu Glu-Arg-Gly-Val-Val-Ser-Ile-Lys-Gly-Val-NH2] | – | – | – | full antagonist activity
8 | H-FFLRIHPDGRVDGVREKSDP-NH2 [bFGF(30-49)-NH2, H-Phe-Phe-Leu-Arg-Ile-His-Pro-Asp-Gly-Arg-Val-Asp-Gly-Val-Arg-Glu-Lys-Ser- Asp-Pro-NH2] | – | – | – | full antagonist activity
9 | YCKNGGFFLRIHPDGRVDGVREKSDPHIKLQLQAEERGVVSIKGV [bFGF(24-68)-OH] | about 5 micromolar | – | – | –
10 | H-LRIHPDGR-NH2 [bFGF(32-39)-NHz, H-Leu-Arg-Ile-His-Pro-Asp-Gly-Arg-NH2] | – | about 11% | about 37% | full antagonist activity
11 | H-YFLRIHPDGRVDGVREKSDPY-OH [[Tyr30,50]-bFGF(30-50)-OH, H-Tyr-Phe-Leu-Arg-Ile-His-Pro-Asp-Gly-Arg-Val-Asp-Gly-Val-Arg-Glu-Lys-Ser- Asp-Pro-Tyr-OH] | – | – | – | full antagonist activity
12 | H-LRIHPDGRVDGVREKSDPHIKL-NH2 [bFGF(32-53)-NHz, H-Leu-Arg-Ile-His-Pro-Asp-Gly-Arg-Val-Asp-Gly-Val-Arg-Glu-Lys-Ser-Asp-Pro- His-Ile-Lys-Leu-NH2] | – | – | – | weak antagonist activity
